Key:
[1] = Selectivity index, ratio of HC50 for hemolytic activity in red blood cells (unknown origin) to MIC for antibacterial activity against penicillin-resistant Staphylococcus aureus ATCC43300; format: toxicity, cell-based, RBC; conditions: read-out: Selectivity Index
Klebsiella pneumoniae = assay: Antibacterial activity against Klebsiella pneumoniae ATCC10031 by broth microdilution assay; format: functional
Bacillus subtilis = assay: Antibacterial activity against penicillin-susceptible Bacillus subtilis ATCC9372 by broth microdilution assay; format: functional
Staphylococcus aureus [2] = assay: Antibacterial activity against penicillin-resistant Staphylococcus aureus ATCC43300 by broth microdilution assay; format: functional
Enterococcus faecalis = assay: Antibacterial activity against vancomycin susceptible Enterococcus faecalis ATCC29212 by broth microdilution assay; format: functional
Escherichia coli = assay: Antibacterial activity against penicillin-susceptible Escherichia coli ATCC25922 by broth microdilution method; format: functional
Acinetobacter baumannii = assay: Antibacterial activity against Acinetobacter baumannii ATCC19606 by broth microdilution assay; format: functional
[3] = Hemolytic activity in red blood cells (unknown origin); format: toxicity, cell-based, Erythrocyte
[4] = system: Staphylococcus epidermidis; assay: Antibacterial activity against erythromycin-susceptible Staphylococcus epidermidis ATCC12228 by broth microdilution assay; format: functional
Staphylococcus aureus [5] = assay: Antibacterial activity against penicillin-resistant Staphylococcus aureus ATCC31007 by broth microdilution assay; format: functional
Staphylococcus aureus [6] = assay: Antibacterial activity against erythromycin susceptible Staphylococcus aureus ATCC25923 by broth microdilution assay; format: functional
Pseudomonas aeruginosa = assay: Antibacterial activity against penicillin-susceptible Pseudomonas aeruginosa ATCC27853 by broth microdilution method; format: functional

Row | SMILES | selectivity ratio [1] | MIC (Klebsiella pneumoniae) | MIC (Bacillus subtilis) | MIC (Staphylococcus aureus [2]) | MIC (Enterococcus faecalis) | MIC (Escherichia coli) | MIC (Acinetobacter baumannii) | HC50 [3] | MIC [4] | MIC (Staphylococcus aureus [5]) | MIC (Staphylococcus aureus [6]) | MIC (Pseudomonas aeruginosa)
1 | CCCCOc1cc[n+](CCCOc2ccc(/C=C/C(=O)c3ccc(OCCC[n+]4ccc(OCCCC)cc4)cc3)cc2)cc1.[Br-].[Br-] | > 320 | 8 µg/mL | 1 µg/mL | 4 µg/mL | 0.5 µg/mL | 16 µg/mL | 128 µg/mL | > 1280 µg/mL | 1 µg/mL | 2 µg/mL | 1 µg/mL | 64 µg/mL
2 | CCCC[N+](C)(C)CCCOc1ccc(C(=O)/C=C/c2ccccc2)cc1.[Br-] | 3 | 128 µg/mL | 64 µg/mL | 32 µg/mL | 64 µg/mL | 128 µg/mL | > 128 µg/mL | 96.3 µg/mL | 16 µg/mL | 64 µg/mL | 16 µg/mL | > 128 µg/mL
3 | CCCCCCCCCC[N+](C)(C)CCCCCOc1ccc(C(=O)/C=C/c2ccccc2)cc1.[Br-] | 10.5 | 16 µg/mL | 4 µg/mL | 4 µg/mL | 4 µg/mL | 64 µg/mL | 16 µg/mL | 42 µg/mL | 8 µg/mL | 4 µg/mL | 4 µg/mL | > 128 µg/mL
4 | CCCCCC[N+](C)(C)CCCCCOc1ccc(C(=O)/C=C/c2ccccc2)cc1.[Br-] | 7 | 32 µg/mL | 8 µg/mL | 16 µg/mL | 16 µg/mL | > 128 µg/mL | 64 µg/mL | 112 µg/mL | 8 µg/mL | 16 µg/mL | 2 µg/mL | > 128 µg/mL
5 | CCCCCCCCCC[N+](C)(C)CCCOc1ccc(C(=O)/C=C/c2ccccc2)cc1.[Br-] | 189 | 128 µg/mL | 8 µg/mL | 4 µg/mL | 64 µg/mL | > 128 µg/mL | > 128 µg/mL | 756 µg/mL | 16 µg/mL | 4 µg/mL | 8 µg/mL | > 128 µg/mL
6 | CCCCCCCCCCCC[N+](C)(C)CCCCCCCOc1ccc(C(=O)/C=C/c2ccccc2)cc1.[Br-] | 3 | > 128 µg/mL | 16 µg/mL | 16 µg/mL | 32 µg/mL | > 128 µg/mL | > 128 µg/mL | 47.4 µg/mL | 16 µg/mL | 64 µg/mL | 16 µg/mL | > 128 µg/mL
7 | CCCCCCNC(=O)C[N+](C)(C)CCCOc1ccc(/C=C/C(=O)c2ccc(OCCC[N+](C)(C)CC(=O)NCCCCCC)cc2)cc1.[Br-].[Br-] | 329 | 4 µg/mL | 2 µg/mL | 1 µg/mL | 2 µg/mL | 2 µg/mL | 32 µg/mL | 234 µg/mL | 1 µg/mL | 1 µg/mL | 1 µg/mL | 32 µg/mL
8 | CCCCCCCC[N+](C)(C)CCCOc1ccc(/C=C/C(=O)c2ccc(OCCC[N+](C)(C)CCCCCCCC)cc2)cc1.[Br-].[Br-] | 129 | 16 µg/mL | 1 µg/mL | 1 µg/mL | 2 µg/mL | 4 µg/mL | 32 µg/mL | 129 µg/mL | 1 µg/mL | 1 µg/mL | 1 µg/mL | 16 µg/mL
9 | CCCCCCCC[N+](C)(C)CCCCCCCOc1ccc(C(=O)/C=C/c2ccccc2)cc1.[Br-] | 52.6 | 8 µg/mL | 2 µg/mL | 2 µg/mL | 4 µg/mL | 128 µg/mL | 32 µg/mL | 105 µg/mL | 2 µg/mL | 4 µg/mL | 2 µg/mL | > 128 µg/mL
10 | CCCC[N+](C)(C)CCCOc1ccc(/C=C/C(=O)c2ccc(OCCC[N+](C)(C)CCCC)cc2)cc1.[Br-].[Br-] | 73.8 | 128 µg/mL | 8 µg/mL | 8 µg/mL | 4 µg/mL | 128 µg/mL | > 128 µg/mL | 590 µg/mL | 2 µg/mL | 2 µg/mL | 2 µg/mL | > 128 µg/mL
11 | CCCCNC(=O)C[N+](C)(C)CCCOc1ccc(/C=C/C(=O)c2ccc(OCCC[N+](C)(C)CC(=O)NCCCC)cc2)cc1.[Br-].[Br-] | > 160 | 32 µg/mL | 4 µg/mL | 8 µg/mL | 8 µg/mL | 16 µg/mL | > 128 µg/mL | > 1280 µg/mL | 4 µg/mL | 4 µg/mL | 2 µg/mL | > 128 µg/mL
12 | CCCCCCCCCCCCCC[N+](C)(C)CCCOc1ccc(C(=O)/C=C/c2ccccc2)cc1.[Br-] | 9.8 | 128 µg/mL | 32 µg/mL | 32 µg/mL | 32 µg/mL | > 128 µg/mL | 128 µg/mL | 39 µg/mL | 16 µg/mL | 64 µg/mL | 8 µg/mL | > 128 µg/mL
13 | CCCCCC(=O)Nc1cc[n+](CCCOc2ccc(C(=O)/C=C/c3ccccc3)cc2)cc1.[Br-] | > 320 | > 128 µg/mL | 4 µg/mL | 4 µg/mL | 8 µg/mL | > 128 µg/mL | > 128 µg/mL | > 1280 µg/mL | > 128 µg/mL | 4 µg/mL | 2 µg/mL | > 128 µg/mL
14 | CCCCCCCCCCOc1cc[n+](CCCOc2ccc(/C=C/C(=O)c3ccc(OCCC[n+]4ccc(OCCCCCCCCCC)cc4)cc3)cc2)cc1.[Br-].[Br-] | 1.3 | 16 µg/mL | 128 µg/mL | 128 µg/mL | 128 µg/mL | 128 µg/mL | 32 µg/mL | 161 µg/mL | 8 µg/mL | 128 µg/mL | 128 µg/mL | > 128 µg/mL
15 | CCCCCCCCCC[N+](C)(C)CCCOc1ccc(/C=C/C(=O)c2ccc(OCCC[N+](C)(C)CCCCCCCCCC)cc2)cc1.[Br-].[Br-] | 22 | 64 µg/mL | 2 µg/mL | 2 µg/mL | 2 µg/mL | 8 µg/mL | 128 µg/mL | 44 µg/mL | 1 µg/mL | 2 µg/mL | 8 µg/mL | 32 µg/mL
16 | CCCCCCCCNC(=O)C[N+](C)(C)CCCOc1ccc(/C=C/C(=O)c2ccc(OCCC[N+](C)(C)CC(=O)NCCCCCCCC)cc2)cc1.[Br-].[Br-] | 17.4 | 32 µg/mL | 4 µg/mL | 4 µg/mL | 4 µg/mL | 8 µg/mL | 16 µg/mL | 69.5 µg/mL | 8 µg/mL | 8 µg/mL | 4 µg/mL | 128 µg/mL

Source: ChEMBL document CHEMBL6092194, “Development of membrane-targeting chalcone derivatives as antibacterial agents against multidrug-resistant bacteria” (Eur J Med Chem, 2024)
